Data on 1 compound can be found in ChEMBL document CHEMBL4706505, “F10, a new camptothecin derivative, was identified as a new orally-bioavailable, potent antitumor agent” (Eur J Med Chem, 2020).

One data set has as its system Raji. Briefly: Antitumor activity against NPG mouse xenografted with human Raji cell assessed as decrease in tumor volume at 2 mg/kg, ip measured on the 1 day. It counts as functional. (In xenograft studies the graft and the host belong to different species.)
The subject of data set [1] is HCT-116. The data set is described as follows: Induction of apoptosis in human HCT-116 cells assessed as early apoptotic cells level at 1 uM incubated for 24 hrs by Annexin V-FITC/PI staining based flow cytometry (reference value: 0.17%). It counts as functional.
For data set [2], the target named is T1, DNA topoisomerase 1 (Homo sapiens) (UniProt P11387).
T1 sequence (whole entry): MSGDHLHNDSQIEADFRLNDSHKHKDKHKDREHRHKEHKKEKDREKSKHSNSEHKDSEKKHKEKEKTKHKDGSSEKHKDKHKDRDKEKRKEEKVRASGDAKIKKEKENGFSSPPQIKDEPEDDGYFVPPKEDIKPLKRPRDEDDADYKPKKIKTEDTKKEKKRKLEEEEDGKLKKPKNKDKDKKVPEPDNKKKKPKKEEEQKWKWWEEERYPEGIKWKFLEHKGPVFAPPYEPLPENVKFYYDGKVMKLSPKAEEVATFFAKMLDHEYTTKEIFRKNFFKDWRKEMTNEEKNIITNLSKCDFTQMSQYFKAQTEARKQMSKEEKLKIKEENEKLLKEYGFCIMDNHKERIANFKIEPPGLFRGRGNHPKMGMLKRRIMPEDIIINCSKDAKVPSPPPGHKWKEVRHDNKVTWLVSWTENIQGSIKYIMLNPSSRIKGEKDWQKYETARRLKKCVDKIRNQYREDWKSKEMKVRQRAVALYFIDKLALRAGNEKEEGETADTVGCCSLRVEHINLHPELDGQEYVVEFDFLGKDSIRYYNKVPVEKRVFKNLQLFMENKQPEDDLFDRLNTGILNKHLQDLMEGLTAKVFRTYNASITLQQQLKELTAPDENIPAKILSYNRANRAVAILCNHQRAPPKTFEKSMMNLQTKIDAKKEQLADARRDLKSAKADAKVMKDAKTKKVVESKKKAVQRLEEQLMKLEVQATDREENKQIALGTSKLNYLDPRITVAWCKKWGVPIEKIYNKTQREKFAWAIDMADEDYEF
The data set is described as follows: Inhibition of human recombinant topoisomerase I using DNA pBR322 as substrate assessed as relaxed DNA at 100 uM incubated for 30 mins by gel electrophoresis analysis relative to control.

Data set [3] is described as follows: Toxicity in nude BALB/c mouse xenografted with human HCT-116 cells assessed as reduction in body weight at 8 mg/kg, po dosed once the every 2 day for upto 24 days. As to conditions: in vivo, time <=24 day. It counts as organism-based.
For data set [4], the system named is HCT-116. Briefly: Induction of apoptosis in human HCT-116 cells assessed as late apoptotic cells level at 0.03 uM incubated for 24 hrs by Annexin V-FITC/PI staining based flow cytometry (reference value: 0.07%). It counts as functional. In general terms: Flow cytometry measures light scatter and fluorescence of single cells or particles in a stream.

The inhibition is the relative decrease from the control value, in per cent. Turning to `CCc1c2c(nc3ccc(OCC(=O)N4CCCCC4)cc13)-c1cc3c(c(=O)n1C2)COC(=O)[C@]3(O)CC`, the Activity is reported as 983 mm3 with Raji, 16.95% in the data set on HCT-116 [1], “Toxic” in data set [3] and 10.73% in the data set with HCT-116 [4]. For the same compound, in data set [2], the inhibition was 63.5%.
